From publication PMC5421785, “Citrullination only infrequently impacts peptide binding to HLA class II MHC” (PLoS ONE, 2017)
Like-named read-outs stand apart in the source and are kept apart here. Square brackets hold non-standard residues; d marks the D form. Ends that are not written are not given here. Peptide text beside a SMILES is read from it. Cit = NC(=O)NCCC[C@H](N)C(=O)O

Columns and labels:
HLA-DRB1*01:01 = biological target: T1, HLA-DRB1*01:01 (Homo sapiens, UniProt P01903+P01911, A100R/D57E/F55L/F60I/F76Y/I96L/L162R/M171V/P40L/Q125E/R42F/V115G/Y59C); assay: HLA class II peptide binding, inhibition of radiolabeled peptide binding to purified MHC
T1 construct: EBV transformed homozygous cell lines were used as sources of MHC molecules; endogenous in cells; host or cells: EBV transformed homozygous cell lines

HLA-DRB1*04:01 = biological target: T2, HLA-DRB1*04:01 (Homo sapiens, UniProt P01903+P01911, A100K/A169T/F76Y/I96L/K127E/L162R/M171V/N62H/P40V/Q125Y/R42H/S133A/S149N/S66Y/V115G/V209L/W38E); assay: as above
T2 construct: EBV transformed homozygous cell lines were used as sources of MHC molecules; endogenous in cells; host or cells: EBV transformed homozygous cell lines

[1] = citrullinated 15-mer (X), purified MHC, inhibition of radiolabeled peptide binding, dash = IC50 >40,000 nM, read-out: DRB1*01:01 binding capacity, Cit peptide (IC50 nM)
[2] = citrullinated 15-mer (X), purified MHC, inhibition of radiolabeled peptide binding, dash = IC50 >40,000 nM, read-out: DRB1*04:01 binding capacity, Cit peptide (IC50 nM)
[3] = wild-type (unmodified Arg) 15-mer peptide, purified HLA-DRB1*01:01, read-out: DRB1*01:01 binding capacity, WT peptide (IC50 nM)
[4] = wild-type (unmodified Arg) 15-mer peptide, purified HLA-DRB1*04:01, read-out: DRB1*04:01 binding capacity, WT peptide (IC50 nM)
[5] = read-out: DRB1*01:01 binding capacity, WT peptide (IC50 nM)
[6] = read-out: DRB1*04:01 binding capacity, WT peptide (IC50 nM)

Molecule	IC50 (HLA-DRB1*01:01; [1])	IC50 (HLA-DRB1*04:01; [2])	IC50 (HLA-DRB1*01:01; [5])	IC50 (HLA-DRB1*04:01; [6])	also measured
CC[C@H](C)[C@H](NC(=O)[C@H](Cc1ccc(O)cc1)NC(=O)[C@H](CC(N)=O)NC(=O)[C@H](C)NC(=O)[C@H](Cc1ccccc1)NC(=O)[C@H](CCCNC(=N)N)NC(=O)[C@H](CC(=O)O)NC(=O)[C@@H](N)CC(N)=O)C(=O)N[C@@H](CC(=O)O)C(=O)N[C@@H](CCCCN)C(=O)N[C@H](C(=O)N[C@@H](CCCNC(N)=O)C(=O)N[C@@H](Cc1ccccc1)C(=O)N[C@@H](CC(C)C)C(=O)N[C@@H](CCC(=O)O)C(=O)O)C(C)C [NDRFANYIDKVXFLE] (H-NDRFANYIDKV[Cit]FLE-OH)	229 nM	5660 nM	–	–	–
GIVGLPGQRGERGFP [Collagen 981 WT]	–	–	–	–	IC50 (HLA-DRB1*01:01; [3]): 6.4 nM; IC50 (HLA-DRB1*04:01; [4]): 2450 nM
C[C@H](NC(=O)[C@@H](NC(=O)CNC(=O)[C@@H]1CCCN1C(=O)CNC(=O)CN)[C@@H](C)O)C(=O)N[C@@H](CO)C(=O)N[C@@H](CCCNC(N)=O)C(=O)N1CCC[C@H]1C(=O)N[C@@H](CO)C(=O)N[C@@H](CO)C(=O)N[C@@H](CO)C(=O)N[C@@H](CCCNC(=N)N)C(=O)N[C@@H](CO)C(=O)N[C@@H](Cc1ccc(O)cc1)C(=O)O [GGPGTASXPSSSRSY] (H-GGPGTAS[Cit]PSSSRSY-OH)	10400 nM	> 40000 nM	–	–	–
CC(C)C[C@H](NC(=O)[C@H](CCCNC(N)=O)NC(=O)[C@@H](NC(=O)[C@H](C)NC(=O)[C@H](CO)NC(=O)[C@H](CO)NC(=O)[C@H](CCCNC(=N)N)NC(=O)[C@@H](NC(=O)[C@H](C)NC(=O)[C@H](Cc1ccc(O)cc1)NC(=O)[C@@H](NC(=O)CNC(=O)CNC(=O)[C@@H]1CCCN1C(=O)[C@@H](N)CO)C(C)C)[C@@H](C)O)C(C)C)C(=O)O [SPGGVYATRSSAVXL] (H-SPGGVYATRSSAV[Cit]L-OH)	7.6 nM	497 nM	–	–	–
SSRSYVTTSTRTYSL [Vimentin 26 WT]	–	–	70 nM	245 nM	–
LVAAVLRCQGQDVQE [Collagen 16 WT]	–	–	–	–	IC50 (HLA-DRB1*01:01; [3]): 21 nM; IC50 (HLA-DRB1*04:01; [4]): 4730 nM
CC(C)C[C@H](NC(=O)[C@H](CO)NC(=O)[C@H](C)NC(=O)[C@H](CC(N)=O)NC(=O)[C@@H](N)CC(=O)O)C(=O)N[C@@H](C)C(=O)N[C@@H](CCCNC(=N)N)C(=O)N[C@@H](CC(C)C)C(=O)N[C@@H](CC(=O)O)C(=O)N[C@@H](CC(C)C)C(=O)N[C@@H](CCC(=O)O)C(=O)N[C@@H](CCCNC(N)=O)C(=O)N[C@@H](CCCCN)C(=O)N[C@H](C(=O)N[C@@H](CCC(=O)O)C(=O)O)C(C)C [DNASLARLDLEXKVE] (H-DNASLARLDLE[Cit]KVE-OH)	10900 nM	> 40000 nM	–	–	–
CC(C)[C@H](NC(=O)[C@H](Cc1ccc(O)cc1)NC(=O)[C@H](CO)NC(=O)[C@H](CCCNC(=N)N)NC(=O)[C@H](CO)NC(=O)[C@H](CO)NC(=O)[C@H](CO)NC(=O)[C@@H]1CCCN1C(=O)[C@H](CCCNC(N)=O)NC(=O)[C@H](CO)NC(=O)[C@H](C)N)C(=O)N[C@H](C(=O)N[C@H](C(=O)N[C@@H](CO)C(=O)N[C@H](C(=O)O)[C@@H](C)O)[C@@H](C)O)[C@@H](C)O [ASXPSSSRSYVTTST] (H-AS[Cit]PSSSRSYVTTST-OH)	5560 nM	757 nM	–	–	–
CC[C@H](C)[C@H](NC(=O)[C@H](CCC(=O)O)NC(=O)[C@H](CC(=O)O)NC(=O)[C@@H](N)CCC(N)=O)C(=O)N[C@@H](CCC(N)=O)C(=O)N[C@@H](CC(N)=O)C(=O)N[C@@H](CCSC)C(=O)N[C@@H](CCCCN)C(=O)N[C@@H](CCC(=O)O)C(=O)N[C@@H](CCC(=O)O)C(=O)N[C@@H](CCSC)C(=O)N[C@@H](C)C(=O)N[C@@H](CCCNC(N)=O)C(=O)N[C@@H](Cc1c[nH]cn1)C(=O)N[C@@H](CC(C)C)C(=O)O [QDEIQNMKEEMAXHL]	–	–	–	–	IC50 (HLA-DRB1*01:01; citrullinated 15-mer peptide (X = citrulline), purified HLA-DRB1*01:01, read-out: DRB1*01:01 binding capacity, Cit peptide (IC50 nM)): 5890 nM; IC50 (HLA-DRB1*04:01; citrullinated 15-mer peptide (X = citrulline), purified HLA-DRB1*04:01, read-out: DRB1*04:01 binding capacity, Cit peptide (IC50 nM)): 3940 nM
VLLTLLVAAVLRCQG [Collagen 11 WT]	–	–	–	–	IC50 (HLA-DRB1*01:01; [3]): 148 nM; IC50 (HLA-DRB1*04:01; [4]): > 40000 nM
CC[C@H](C)[C@H](N)C(=O)N[C@@H](CC(=O)O)C(=O)N[C@H](C(=O)N[C@@H](CC(=O)O)C(=O)N[C@H](C(=O)N[C@@H](CO)C(=O)N[C@@H](CCCCN)C(=O)N1CCC[C@H]1C(=O)N[C@@H](CC(=O)O)C(=O)N[C@@H](CC(C)C)C(=O)N[C@H](C(=O)N[C@@H](C)C(=O)N[C@@H](C)C(=O)N[C@@H](CC(C)C)C(=O)N[C@@H](CCCNC(N)=O)C(=O)O)[C@@H](C)O)C(C)C)C(C)C [IDVDVSKPDLTAALX] (H-IDVDVSKPDLTAAL[Cit]-OH)	935 nM	23500 nM	–	–	–
CC[C@H](C)[C@H](NC(=O)CNC(=O)[C@H](CCCNC(=N)N)NC(=O)[C@H](CCC(N)=O)NC(=O)CNC(=O)[C@H](C)NC(=O)[C@H](CC(C)C)NC(=O)CNC(=O)[C@H](CCC(N)=O)NC(=O)[C@@H]1CCCN1C(=O)CNC(=O)[C@@H]1CCCN1)C(=O)N[C@H](C(=O)NCC(=O)N[C@@H](CC(C)C)C(=O)O)C(C)C [Collagen 971 WT]	–	–	–	–	IC50 (HLA-DRB1*01:01; [3]): 7.9 nM; IC50 (HLA-DRB1*04:01; [4]): 7160 nM
CSCC[C@H](NC(=O)[C@H](CCCNC(N)=O)NC(=O)[C@H](CCCNC(=N)N)NC(=O)[C@H](Cc1ccc(O)cc1)NC(=O)[C@H](CO)NC(=O)[C@H](CO)NC(=O)[C@H](CO)NC(=O)[C@H](CO)NC(=O)[C@@H](NC(=O)[C@H](CO)NC(=O)[C@H](CCCNC(=N)N)NC(=O)[C@@H](NC(=O)[C@H](CO)NC(=O)[C@@H](N)CCSC)[C@@H](C)O)C(C)C)C(=O)N[C@@H](Cc1ccccc1)C(=O)O [MSTRSVSSSSYRXMF] (H-MSTRSVSSSSYR[Cit]MF-OH)	672 nM	443 nM	–	–	–
GLPGAPGLRGLPGKD [Collagen 621 WT]	–	–	–	–	IC50 (HLA-DRB1*01:01; [3]): 810 nM; IC50 (HLA-DRB1*04:01; [4]): > 40000 nM
RQVQSLTCEVDALKG [Vimentin 321 WT]	–	–	–	–	IC50 (HLA-DRB1*01:01; [3]): 2730 nM; IC50 (HLA-DRB1*04:01; [4]): 9140 nM
DGLAGPKGAPGERGP [Collagen 521 WT]	–	–	–	–	IC50 (HLA-DRB1*01:01; [3]): 2240 nM; IC50 (HLA-DRB1*04:01; [4]): 36900 nM
CC[C@H](C)[C@H](NC(=O)[C@H](Cc1ccc(O)cc1)NC(=O)[C@H](CC(N)=O)NC(=O)[C@H](C)NC(=O)[C@H](Cc1ccccc1)NC(=O)[C@H](CCCNC(N)=O)NC(=O)[C@H](CC(=O)O)NC(=O)[C@H](CC(N)=O)NC(=O)[C@H](CC(C)C)NC(=O)[C@H](CCC(=O)O)NC(=O)[C@H](CCC(N)=O)NC(=O)[C@H](CC(C)C)NC(=O)[C@@H](N)CCC(=O)O)C(=O)N[C@@H](CC(=O)O)C(=O)N[C@@H](CCCCN)C(=O)O [ELQELNDXFANYIDK]	295 nM	26700 nM	–	–	–

Second part, led by results:

IC50 (HLA-DRB1*01:01; [1])	IC50 (HLA-DRB1*04:01; [2])	IC50 (HLA-DRB1*01:01; [5])	IC50 (HLA-DRB1*04:01; [6])	Molecule	also measured
–	–	524 nM	884 nM	NDKARVEVERDNLAE [Vimentin 166 WT]	–
–	–	5.7 nM	513 nM	CC[C@H](C)[C@H](NC(=O)[C@H](CCCCN)NC(=O)[C@H](CC(N)=O)NC(=O)[C@H](CCC(N)=O)NC(=O)[C@H](CCC(N)=O)NC(=O)[C@H](CCC(=O)O)NC(=O)[C@H](CC(C)C)NC(=O)[C@H](Cc1ccccc1)NC(=O)[C@H](CCCNC(=N)N)NC(=O)[C@@H](N)C(C)C)C(=O)N[C@@H](CC(C)C)C(=O)N[C@@H](CC(C)C)C(=O)N[C@@H](C)C(=O)N[C@@H](CCC(=O)O)C(=O)N[C@@H](CC(C)C)C(=O)O [Vimentin 121 WT]	–
–	–	4450 nM	1790 nM	FKNTRTNEKVELQEL [Vimentin 96 WT]	–
–	–	704 nM	11900 nM	EEMLQREEAENTLQS [Vimentin 191 WT]	–
–	–	4500 nM	13900 nM	ADLSEAANRNNDALR [Vimentin 296 WT]	–
–	–	6560 nM	6010 nM	REEAENTLQSFRQDV [Vimentin 196 WT]	–
–	–	568 nM	5240 nM	ELRRQVDQLTNDKAR [Vimentin 156 WT]	–
